In patent US11852971B2, “Compound, photosensitive resin composition including the same, photosensitive resin layer, color filter and display device” (SAMSUNG SDI CO., LTD., priority 2019, dated 2023):

Legend:
[1] = Solubility measurement in dilution solvent (PGMEA); assay type: physicochemical; settings: PGMEA added to 0.5 g compound, stirred 100 rpm, one hour, 25° C.
Method: Evaluation 2: Solubility Measurement Solubility of the compounds according to Synthesis Examples 11 to 21 and Comparative Synthesis Examples 1 to 6 were measured by adding a dilution solvent (PGMEA) to 0.5 g of each compound and respectively stirring the mixtures (MIXROTAR VMR-5, Iuchi Seiei Dou Co.) at 100 rpm for one hour at 25° C., and the results are shown in Table 2. Solubility Evaluation Criteria Greater than or equal to 10 wt % of a compound (a solute) based on a total amount of a diluting solvent was dissolved: ∘ Less than 10 wt % of a compound (a solute) based on a total amount of a diluting solvent was dissolved: X

[2] = Measurement of the shortest wavelength of full width at half maximum (FWHM) with respect to maximum absorption wavelength (absorption spectrum); assay type: physicochemical; settings: 0.005 wt % in PGMEA; UV-1800
Source text: The shortest wavelength of the full width at half maximum (FWHM) with respect to the maximum absorption wavelengths denotes a wavelength having the smallest value (a) among the energy widths (Δλ) of the maximum absorption wavelength (b) in the absorption spectrum of a particular phthalocyanine compound. (Refer to the FIGURE)
Evaluation 1: Measurement of the Shortest Wavelength of Full Width at Half Maximum (FWHM) with respect to Maximum Absorption Wavelength
The compounds according to Synthesis Example 1 to Synthesis Example 21 and Comparative Synthesis Example 1 to Comparative Synthesis Example 6 were prepared at a concentration of 0.005 wt % using a diluting solvent (PGMEA). Absorption spectra were obtained for each of the phthalocyanine compounds according to Synthesis Example 1 to […] and Comparative Synthesis Example 1 to Comparative Synthesis Example 6, and the results are shown in Table 1 (UV-1800, SHTMADZU).

| SMILES | Solubility [1] | The shortest wavelength (nm) of full width at half maximum (FWHM) with respect to maximum absorption wavelength [2] [nm] |
| --- | --- | --- |
| CC(C)(C)COc1c(Cl)c(Cl)c2c(c1Cl)/C1=N/c3c4c(Cl)c(Cl)c(Cl)c(Cl)c4c4[n]3[Zn][n]3/c(c5ccccc5/c3=N/C2=N1)=N\C1=NC(=N\4)/c2c(Cl)c(Cl)c(Cl)c(Cl)c21 [Synthesis Example 13] | ○ | 618 |
| CC(C)c1ccccc1Oc1c(Cl)c(Cl)c2c(c1Cl)/C1=N/c3c4c(Cl)c(Cl)c(Cl)c(Cl)c4c4[n]3[Zn][n]3/c(c5ccccc5/c3=N/C2=N1)=N\C1=NC(=N\4)/c2c(Cl)c(Cl)c(Cl)c(Cl)c21 [Synthesis Example 2] | ○ | 617 |
| CC(C)(C)COc1c(Cl)c(Cl)c2c(c1Cl)/C1=N/c3c4c(Cl)c(OCC(C)(C)C)c(Cl)c(Cl)c4c4[n]3[Zn][n]3/c(c5ccccc5/c3=N/C2=N1)=N\C1=NC(=N\4)/c2c(Cl)c(Cl)c(Cl)c(Cl)c21 [Synthesis Example 12] | ○ | 617 |
| CC(C)c1ccccc1Oc1c(Cl)c(Cl)c2c(c1Cl)/C1=N/c3c4c(Cl)c(Oc5ccccc5C(C)C)c(Cl)c(Cl)c4c4[n]3[Zn][n]3/c(c5ccccc5/c3=N/C2=N1)=N\C1=NC(=N\4)/c2c(Cl)c(Cl)c(Cl)c(Cl)c21 [Synthesis Example 1] | ○ | 616 |
| CCC(C)c1ccccc1Oc1c(Cl)c(Cl)c2c(c1Cl)C1=NC/2=N\c2c3c(Cl)c(Cl)c(Oc4ccccc4C(C)CC)c(Cl)c3c3[n]2[Zn][n]2/c(c4c(Cl)c(Cl)c(Oc5ccccc5C(C)CC)c(Cl)c4/c2=N/C2=NC(=N\3)/c3c(Cl)c(Oc4ccccc4C(C)CC)c(Cl)c(Cl)c32)=N\1 (centres unmarked) [Comparative Synthesis Example 1, reference compound] | X (Less than 10 wt % of a compound (a solute) based on a total amount of a diluting solvent was dissolved) | 628 |
| Cc1cccc(C)c1Oc1c(Cl)c(Cl)c2c(c1Cl)/C1=N/c3c4c(Cl)c(Cl)c(Cl)c(Cl)c4c4[n]3[Zn][n]3/c(c5ccccc5/c3=N/C2=N1)=N\C1=NC(=N\4)/c2c(Cl)c(Cl)c(Cl)c(Cl)c21 [Synthesis Example 7] | ○ | 618 |
| CC(C)(C)c1ccc(Oc2c(Cl)c(Cl)c3c(c2Cl)/C2=N/c4c5c(Cl)c(Oc6ccc(C(C)(C)C)cc6C(C)(C)C)c(Cl)c(Cl)c5c5[n]4[Zn][n]4/c(c6ccccc6/c4=N/C3=N2)=N\C2=NC(=N\5)/c3c(Cl)c(Cl)c(Cl)c(Cl)c32)c(C(C)(C)C)c1 [Synthesis Example 8] | ○ | 616 |
| Cc1cccc(C)c1Oc1c(Cl)c(Cl)c2c(c1Cl)/C1=N/c3c4c(Cl)c(Oc5c(C)cccc5C)c(Cl)c(Cl)c4c4[n]3[Zn][n]3/c(c5ccccc5/c3=N/C2=N1)=N\C1=NC(=N\4)/c2c(Cl)c(Cl)c(Cl)c(Cl)c21 [Synthesis Example 6] | ○ | 618 |
| CC(C)COc1c(Cl)c(Cl)c2c(c1Cl)/C1=N/c3c4c(Cl)c(OCC(C)C)c(Cl)c(Cl)c4c4[n]3[Zn][n]3/c(c5ccccc5/c3=N/C2=N1)=N\C1=NC(=N\4)/c2c(Cl)c(Cl)c(Cl)c(Cl)c21 [Synthesis Example 18] | ○ | 617 |
| CC(C)(C)c1ccc(Oc2c(Cl)c(Cl)c3c(c2Cl)C2=NC/3=N\c3c4c(Cl)c(Cl)c(Oc5ccc(C(C)(C)C)cc5C(C)(C)C)c(Cl)c4c4[n]3[Zn][n]3/c(c5c(Cl)c(Cl)c(Oc6ccc(C(C)(C)C)cc6C(C)(C)C)c(Cl)c5/c3=N/C3=NC(=N\4)/c4c(Cl)c(Oc5ccc(C(C)(C)C)cc5C(C)(C)C)c(Cl)c(Cl)c43)=N\2)c(C(C)(C)C)c1 [Comparative Synthesis Example 2, reference compound] | X (Less than 10 wt % of a compound (a solute) based on a total amount of a diluting solvent was dissolved) | 624 |
| CC(C)CCOc1c(Cl)c(Cl)c2c(c1Cl)/C1=N/c3c4c(Cl)c(Cl)c(Cl)c(Cl)c4c4[n]3[Zn][n]3/c(c5ccccc5/c3=N/C2=N1)=N\C1=NC(=N\4)/c2c(Cl)c(Cl)c(Cl)c(Cl)c21 [Synthesis Example 16] | ○ | 618 |
| CC(C)COc1c(Cl)c(Cl)c2c(c1Cl)/C1=N/c3c4c(Cl)c(Cl)c(Cl)c(Cl)c4c4[n]3[Zn][n]3/c(c5ccccc5/c3=N/C2=N1)=N\C1=NC(=N\4)/c2c(Cl)c(Cl)c(Cl)c(Cl)c21 [Synthesis Example 19] | ○ | 618 |
| COc1ccc(Oc2c(Cl)c(Cl)c3c4[n]5c(c3c2Cl)/N=C2N=C(/N=c3/c6c(Cl)c(Cl)c(Cl)c(Cl)c6/c([n]3[Zn]5)=N/C3=NC(=N\4)/c4c(Cl)c(Cl)c(Cl)c(Cl)c43)c3c(Cl)c(Cl)c(Cl)c(Cl)c3\2)c(OC)c1 [Comparative Synthesis Example 4, reference compound] | X (Less than 10 wt % of a compound (a solute) based on a total amount of a diluting solvent was dissolved) | 626 |
| CC(C)(C)COc1c(Cl)c(Cl)c2c(c1Cl)/C1=N/c3c4c(Cl)c(OCC(C)(C)C)c(Cl)c(Cl)c4c4[n]3[Zn][n]3/c(c5ccccc5/c3=N/C2=N1)=N\C1=NC(=N\4)/c2ccccc21 [Synthesis Example 14] | ○ | 611 |
| COc1ccc(Oc2c(Cl)c(Cl)c3c(c2Cl)C2=NC/3=N\c3c4c(Cl)c(Oc5ccc(OC)cc5OC)c(Cl)c(Cl)c4c4[n]3[Zn][n]3/c(c5c(Cl)c(Cl)c(Oc6ccc(OC)cc6OC)c(Cl)c5/c3=N/C3=NC(=N\4)/c4c(Cl)c(Oc5ccc(OC)cc5OC)c(Cl)c(Cl)c43)=N\2)c(OC)c1 [Comparative Synthesis Example 3, reference compound] | X (Less than 10 wt % of a compound (a solute) based on a total amount of a diluting solvent was dissolved) | 623 |
| CC(C)(C)c1ccccc1Oc1c(Cl)c(Cl)c2c(c1Cl)/C1=N/c3c4c(Cl)c(Oc5ccccc5C(C)(C)C)c(Cl)c(Cl)c4c4[n]3[Zn][n]3/c(c5ccccc5/c3=N/C2=N1)=N\C1=NC(=N\4)/c2c(Cl)c(Cl)c(Cl)c(Cl)c21 [Synthesis Example 3] | ○ | 618 |
| Cc1ccccc1Oc1c(Cl)c(Cl)c2c(c1Cl)/C1=N/c3c4c(Cl)c(Oc5ccccc5C)c(Cl)c(Cl)c4c4[n]3[Zn][n]3/c(c5ccccc5/c3=N/C2=N1)=N\C1=NC(=N\4)/c2c(Cl)c(Cl)c(Cl)c(Cl)c21 [Synthesis Example 5] | ○ | 618 |
| CC(C)CCOc1c(Cl)c(Cl)c2c(c1Cl)/C1=N/c3c4c(Cl)c(OCCC(C)C)c(Cl)c(Cl)c4c4[n]3[Zn][n]3/c(c5ccccc5/c3=N/C2=N1)=N\C1=NC(=N\4)/c2ccccc21 [Synthesis Example 17] | ○ | 611 |
| CC(C)(C)c1ccccc1Oc1c(Cl)c(Cl)c2c(c1Cl)/C1=N/c3c4c(Cl)c(Oc5ccccc5C(C)(C)C)c(Cl)c(Cl)c4c4[n]3[Zn][n]3/c(c5cc(Cl)ccc5/c3=N/C2=N1)=N\C1=NC(=N\4)/c2c(Cl)c(Cl)c(Cl)c(Cl)c21 [Comparative Synthesis Example 6, reference compound] | X (Less than 10 wt % of a compound (a solute) based on a total amount of a diluting solvent was dissolved) | 623 |
| CC(C)(C)c1ccc(Oc2c(Cl)c(Cl)c3c(c2Cl)/C2=N/c4c5c(Cl)c(Cl)c(Cl)c(Cl)c5c5[n]4[Zn][n]4/c(c6ccccc6/c4=N/C3=N2)=N\C2=NC(=N\5)/c3c(Cl)c(Cl)c(Cl)c(Cl)c32)c(C(C)(C)C)c1 [Synthesis Example 9] | ○ | 618 |
| CC(C)(C)c1ccc(Oc2c(Cl)c(Cl)c3c(c2Cl)/C2=N/c4c5ccccc5c5[n]4[Zn][n]4/c(c6ccccc6/c4=N/C3=N2)=N\C2=NC(=N\5)/c3ccccc32)c(C(C)(C)C)c1 [Synthesis Example 21] | X (Less than 10 wt % of a compound (a solute) based on a total amount of a diluting solvent was dissolved) | 608 |
| CC(C)CCOc1c(Cl)c(Cl)c2c(c1Cl)/C1=N/c3c4c(Cl)c(OCCC(C)C)c(Cl)c(Cl)c4c4[n]3[Zn][n]3/c(c5ccccc5/c3=N/C2=N1)=N\C1=NC(=N\4)/c2c(Cl)c(Cl)c(Cl)c(Cl)c21 [Synthesis Example 15] | ○ | 617 |
